# Where two headings read alike, the source gives them in different places.
# Tests used:
# [1] = Kinetic aqueous solubility assay; assay type: physicochemical; design: key to Kinetic solubility (no value): –: Compounds with no value were under the detection limit; settings: for Kinetic solubility in words: wording of the text, outside the class key; for solubility kinetic at 2 h: PBS buffer, pH 6.5, aqueous buffer, kinetic from dmso stock; for Kinetic solubility (no value): PBS pH 6.5, 2 hours, dash = under the detection limit
# Method: (§1) Kinetic aqueous solubility assay. All compounds were dissolved in DMSO to make stock solutions at 10 mM concentration. […] 5 μL of the stock solutions was pipetted into a 96-well plate containing 495 μL PBS (pH 6.5) in each well to achieve 100 μM target concentration (1% DMSO). […] The plate was then sealed and shaken for 2 hours at room temperature. Each compound was investigated in 3 replicates. After 2 hours, the samples were filtered on a MultriscreenHTS filter plate (MSSLBPC, polycarbonate membrane, Merck KGaA, Darmstadt, Germany) by a Millipore Vacuum Manifold (Merck KGaA, Darmstadt, Germany). Before analyzing, 20 vol % acetonitrile was added to each well to avoid sample precipitation during HPLC analysis.
# (§2) Analytical methods. […] For a 7-minute long gradient program, eluents A (0.1% formic acid in water) and B (0.1% formic acid in acetonitrile) were used as follows: initial conditions with 30% B were kept for 1 minute, then 90% B was achieved within 3 minutes, kept for further 1 minute, finally the initial condition was adjusted and equilibrated for further 2 minutes. 5-Point calibration series were measured from each compound resulting in R^2 ≈ 0.9990–0.9999.
# [2] = Determination of the capacity factor (logk) by RP-HPLC; assay type: physicochemical; settings: reversed-phase chromatographic capacity factor, eluent pH 7.0
# Method: Determination of the capacity factor. […] The same analytical method was used with modified eluents: eluent A was 20 mM triethylamine with phosphoric acid (pH 7.0), and eluent B was acetonitrile without additives. The method time was slightly extended, with a 1-minute longer gradient, resulting in an 8-minute program. The capacity factor was calculated with Equation 3: […]
# where k is the capacity factor, tR is the retention time (min) of the compounds and t0 is the dead-time of the column (min).
# [3] = Metabolic stability assay in human liver microsome fractions; assay type: in vitro ADME; settings: NADPH, 37 °C; for CLint scaled at 10 µM / half-life at 10 µM: pH 7.4, pooled human liver microsomes; for CLint scaled at 10 µM: read-out: HLM Clint (converted); for half-life at 10 µM: read-out: HLM t1/2
# Method: Metabolic stability assay in human liver microsome fractions. The metabolic stability of the test compounds was assessed in vitro using pooled liver microsome fractions derived from humans (Xenotech LLC). The assay was conducted in a 96-well plate format according to a standardized protocol, utilizing cofactor-supplemented incubation systems, mainly to mimic phase I oxidative metabolic pathways. Human liver microsome (HLM) fractions were thawed on ice and diluted in 0.05 M potassium phosphate buffer (pH 7.4) to a final protein concentration of 1.25 mg/mL. Test compounds were dissolved in DMSO to create stock solutions of 5 mM. The drug concentration in the final assays was 10 μM. The assay was performed in triplicate. Reaction mixtures containing the diluted HLM fractions and test compounds were pre-incubated for 5 minutes at 37 °C while shaking at 450 rpm. The reaction was initiated by adding the 0.05 M NADPH cofactor mixture to the wells (100 µL per well) for the “with cofactors” conditions or by adding phosphate buffer for the “without cofactors” control. Aliquots (100 µL) were taken at zero time and at pre-defined time points of 30 and 60 minutes and quenched with an equal volume of cold acetonitrile. The samples were centrifuged at 2600 RCF for 10 minutes to pellet proteins. Supernatants were transferred to LC vials and stored at −20 °C until LC–MS/MS analysis. The concentration of the parent compound remaining in each sample was determined using liquid chromatography coupled with tandem mass spectrometry (LC–MS/MS). The percentage of the remaining substrate was calculated relative to the time-zero sample. The natural logarithm of the percentage remaining was plotted against incubation time to determine the first-order elimination rate constant (k) using linear regression. The half-life (t₁/₂) was calculated using Equation 4: […]
# Intrinsic clearance (Clint) was calculated and scaled to in vivo conditions using Equation 5:
# [5] Clint=ln2/t1/2×liver weight (g)/standard body weight (kg)×incubation volume (mL)/HLM protein/well×HLM protein (mg)/gram of liver
# where the HLM protein per gram of liver was equal to 25 and the liver weight per standard body was equal to 49. Testosterone was included as a positive control to confirm metabolic competence of the HLM fractions, with and without cofactors.
# HPLC–MS analysis. The semi-quantitative determination of test compounds was carried out using a Waters Xevo G2-XS QToF mass spectrometer equipped with an electrospray ionization (ESI) source operating in positive ion mode. Chromatographic separation was performed on a Waters XBridgeTM Premier BEH C18 (3.5 μm, 4.6 × 150 mm) column maintained at 40 °C. The mobile phase consisted of water with 0.1% formic acid (A) and acetonitrile with 0.1% formic acid (B). The injection volume was 10 µL. The autosampler was maintained at 5 °C. The gradient elution program shown in Table 4 was applied at a constant flow rate of 1.0 mL/min.
# The mass spectrometer operated in sensitivity mode with a capillary voltage of 3.0 kV, source temperature was 100 °C, and desolvation temperature was 350 °C. The cone gas flow was set to 0 L/h and desolvation gas flow to 800 L/h. LockSpray calibration was performed using leucine enkephalin as the reference compound (m/z 556.2771), introduced at 15 µL/min. Data acquisition was performed in MSE mode with alternating low collision energy (6 eV) and ramped high-energy collision dissociation (20–40 eV). The mass range was set from 50 to 1200 Da. Each function used a scan time of 0.5 s. Data were acquired in the continuum mode. Instrument mass accuracy calibration was verified using sodium formate. The system was controlled with a MassLynx v4.2 SCN996 software.
# [4] = In vitro gastrointestinal permeability assay (GI PAMPA); assay type: in vitro ADME; settings: for GI PAMPA membrane retention / GI PAMPA penetration: donor pH 6.5, acceptor pH 7.4, 1% DMSO, 37 °C, 4 hours, mean of 3 replicates; for Papp at 4 h, 100 µM: PAMPA; for GI PAMPA membrane retention (MR) in words: wording of the text, outside the class key
# Method: In vitro gastrointestinal permeability assay. […] The artificial membrane was fabricated by dissolving ʟ-α-phosphatidylcholine (16 mg) and cholesterol (4 mg) in a solvent mixture of chloroform, hexane and dodecane (5/70/25 vol %). Each well of the PAMPA donor plate (MAIPNTR, PVDF membrane, Merck KGaA, Darmstadt, Germany) was coated with 5 μL lipid solution. Thereafter the donor plate was fitted into the acceptor plate (MSSACCEPTOR, Merck KGaA, Darmstadt, Germany) already containing 300 μL PBS (pH 7.4) solutions with 1% DMSO. Finally, 150 μL of the initial solutions was pipetted into the donor plate, the plate sandwich was covered with a wet paper tissue and with a plate lid to avoid evaporation, and the system was incubated at 37 °C for 4 hours. Then samples were taken from the donor and acceptor wells and analyzed along with the initial solutions by HPLC.
# [1] Pe=−2.303/A⋅(t−τss)⋅(1/1+ra)⋅lg[−ra+(1+ra/1−MR)⋅cD(t)/cD(0)]
# [2] MR=1−cD(t)/cD(0)−VAcA(t)/VDcD(0)
# where A is the filter area (0.24 cm^2), t is the incubation time (s), τss is the time to reach steady-state (s), ra is the sink asymmetry ratio approximated with a value of 10^−14, VD and VA are the volumes in the donor (0.15 mL) and the acceptor phase (0.3 mL), cD(t) is the concentration of the compound in the donor phase at time point t (mol/L), cD(0) is the concentration of the compound in the donor phase at time point zero (initial solutions, mol/L), cA(t) is the concentration of the compound in the acceptor phase at time point t (mol/L), cA(0) is the concentration of the compound in the acceptor phase at time point zero (mol/L).
# as §2
# [5] = DMSO solubility (stock solution preparation); assay type: physicochemical
# Method: as §1
# [6] = PBS pH 6.5, 100 µM target concentration (1% DMSO), 2 hours, room temperature, mean of 3 replicates, read-out: Kinetic solubility
# [7] = class in words, read-out: Kinetic solubility category
# [8] = scaled to in vivo conditions (Equation 5)
# [9] = class in words, read-out: GI PAMPA permeability (Pe) category
# [10] = colour key of Figure 5, read-out: Permeability category (Pe), colouring of Figure 5
"Kinetic solubility ([1]; PBS pH 6.5, 100 µM target concentration (1% DMSO), 2 hours, room temperature, mean of 3 replicates)",Kinetic solubility in words [1],logk (−) pH 7.0 [2],"HLM Clint ([3]; pooled human liver microsomes, 10 μM, scaled to in vivo conditions (Equation 5))","HLM t1/2 ([3]; pooled human liver microsomes, 10 μM, triplicate)",GI PAMPA membrane retention (MR) category ([4]; class in words),GI PAMPA permeability (Pe) category ([4]; class in words),GI PAMPA membrane retention [4],GI PAMPA penetration [4],"solubility kinetic at 2 h [1, 6]","solubility kinetic at 2 h [1, 7]","CLint scaled at 10 µM [3, 8]",half-life at 10 µM ([3]; triplicate),"Papp at 4 h, 100 µM [4, 9]","Papp at 4 h, 100 µM [4, 10]",Kinetic solubility (no value) ([1]; room temperature),highest concentration achieved in DMSO [5],GI PAMPA membrane retention (MR) in words [4],Compound
20.5 ± 0.8 µM,moderate to good,0.547,1.2 ± 0.042 mL/h/kg,34 ± 1 min,moderate (moderate under 80%),good (good above 10 × 10^−6 cm/s),61.0 ± 5.1%,33.6 ± 3.0 10^−6 cm/s,,,,,,,,,,CC/C(C)=N/Nc1cccc2c1S(=O)(=O)N(C)N=C2C [(E)-7a]
,moderate to good,0.567,,,moderate (moderate under 80%),,39.8 ± 0.2%,30.3 ± 4.2 10^−6 cm/s,41.4 ± 0.9 µM,> 30 µM,1.42 mL/h/kg,29 ± 2 min,> 10 ×10⁻⁶ cm/s,> 10 ×10⁻⁶ cm/s,,,,CC1=NN(C)S(=O)(=O)c2c1ccc1c(C)c[nH]c21 [Compound 3c]
,,0.653,,,,,,,,,,,,,–,1 mM,,CC1=NN(C)S(=O)(=O)c2c(N/N=C3\CCCc4ccccc43)cccc21 [(E)-9a]
,,0.516,,,,,82.3 ± 0.8%,7.1 ± 1.7 10^−6 cm/s,51.4 ± 1.3 µM,> 30 µM,,100 ± 23 min,< 10 ×10⁻⁶ cm/s,< 10 ×10⁻⁶ cm/s,,,high,"CC1=NN(C)S(=O)(=O)c2c1ccc1c3c([nH]c21)CCCC3 [Compound 3e, 2,4-Dimethyl-2,7,8,9,10,11-hexahydro[1,2,3]thiadiazino[6,5-a]carbazole 1,1-dioxide]"
,,0.661,,,,,,,2.2 ± 0.1 µM,,,,,,,0.5 mM,,CN1N=C(c2ccccc2)c2cccc(NN=C3CCCC3)c2S1(=O)=O [Compound 7i]
,,0.660,,,,,,,2.8 ± 0.2 µM,,,,,,,0.5 mM,,CN1N=C(c2ccccc2)c2cccc(NN=C3CCCCC3)c2S1(=O)=O [Compound 7j]
,,0.695,,,,,,,,,,,,,–,0.5 mM,,CN1N=C(c2ccccc2)c2cccc(N/N=C3\CCCc4ccccc43)c2S1(=O)=O [(E)-9b]
,,0.599,,,,,93.3 ± 0.2%,7.6 ± 2.9 10^−6 cm/s,46.9 ± 2.8 µM,> 30 µM,1.34 mL/h/kg,31 ± 3 min,< 10 ×10⁻⁶ cm/s,< 10 ×10⁻⁶ cm/s,,,high,CC1=NN(C)S(=O)(=O)c2c(NN=C3CCCC3)cccc21 [Compound 7d]

# Reference: PMC12557438, “Thiadiazino-indole, thiadiazino-carbazole and benzothiadiazino-carbazole dioxides: synthesis, physicochemical and early ADME characterization of representatives of new tri-, tetra- and pentacyclic ring systems and their intermediates” (Beilstein Journal of Organic Chemistry, 2025)
